Assay results from paper PMC9421655, “Novel Antagonist of the Type 2 Lysophosphatidic Acid Receptor (LPA2), UCM-14216, Ameliorates Spinal Cord Injury in Mice” (Journal of Medicinal Chemistry, 2022).

Experiments:
LPA1 [1] = molecular target: T1, LPA1 (Homo sapiens, UniProt Q92633); test: cell-based; conditions: maximum blockade of activation induced by 10 μM LPA (18:1) at 10 μM compound; N.E. = no effect at 10 μM
Description: (§1) Cells stably expressing the corresponding LPA1–3 receptor were grown as described previously.[18] Changes in intracellular calcium levels were measured by using the fluorescent calcium sensitive dye Fluo-4 NW (Invitrogen). RH7777 cells or B103 cells were plated on poly-D-lysine or collagen coated, respectively, black-wall clear-bottom 96-well plates (Corning) at a density of 50 000 cells/well and cultured overnight. The culture medium was then replaced with 100 μL of Fluo-4 NW dye loading solution containing 2.5 μM of probenecid and incubated for 30 min at 37 °C followed by an additional 30 min at rt. […] Fluorescence changes were registered in a FluoStar Optima instrument (BMG Labtech) at 525 nm using an excitation wavelength of 494 nm. […] The data presented are from two to four independent experiments carried out in triplicate or quadruplicate. Dose–response curves were generated and IC50 values calculated by nonlinear regression analysis using Prism software version 5 (GraphPad Software Inc., San Diego, CA, USA).

LPA2 [2] = molecular target: T2, LPA2 (Homo sapiens, UniProt Q9HBW0); test: Ca2+ mobilization assay, antagonist activity at LPA2; assay type: cell-based; parameters: Emax: dose or concentration left out as unconfirmed; conditions: for IC50: antagonism of 10 μM LPA, mean ± s.e.m.
T2 construct: expressed in transfected cells
Description: as §1
Figure S2. Dose response curves for compounds 13, 44, 53, 54, and 55. B103 cells stably expressing LPA2 receptor were incubated with different concentrations of the compound under study and […]
Curves were generated with PRISM software version 5 (GraphPad Software Inc, San Diego, CA, USA) using nonlinear regression analysis. Each data point corresponds to the mean±SEM of two to four independent experiments carried out in triplicate or quadruplicate.

LPA3 [3] = molecular target: T3, LPA3 (Homo sapiens, UniProt Q9UBY5); test: cell-based; conditions: for Emax (%) LPA3: maximum blockade of activation induced by 10 μM LPA (18:1) at 10 μM compound, N.E. = no effect at 10 μM
T3 sequence (Q9UBY5 1-353): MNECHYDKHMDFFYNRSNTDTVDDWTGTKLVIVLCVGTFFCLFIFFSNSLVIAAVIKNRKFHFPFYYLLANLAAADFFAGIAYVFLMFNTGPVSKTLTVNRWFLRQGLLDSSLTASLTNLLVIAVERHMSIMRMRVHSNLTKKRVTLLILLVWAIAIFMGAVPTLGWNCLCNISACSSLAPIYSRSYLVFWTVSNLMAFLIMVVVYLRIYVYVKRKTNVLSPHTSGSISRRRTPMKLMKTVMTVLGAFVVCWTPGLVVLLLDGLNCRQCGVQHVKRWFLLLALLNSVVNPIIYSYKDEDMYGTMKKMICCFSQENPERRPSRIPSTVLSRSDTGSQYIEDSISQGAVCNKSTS
Description: as §1

LPA2 [4] = molecular target: T2, LPA2; test: Ca2+ mobilization assay, agonist activity at LPA2; assay type: cell-based; conditions: 10 μM compound
Description: The agonist activity at LPA2 receptors was determined at 10 μM concentration for all final compounds as previously described.[18]
Figure S1. Representative snapshots showing the lack of significant agonist activity of selected compounds. (A) 1; (B) 13; (C) 54; and (D) Ki16425. (E) Graphs show the agonist activity induced […]
stably expressing LPA2 receptor were plated on collagen-coated black-wall clear-bottom 96-well plates (Corning) at a density of 50000 cells/well and cultured overnight. The culture medium was then replaced with Fluo-4 NW dye loading solution containing 2.5 µM of probenecid and incubated […]
for 30 minutes at 37 °C followed by an additional 30 minutes at rt. Fluorescence changes were registered in a FluoStar Optima instrument (BMG Labtech) at 525 nm using an excitation wavelength of 494 nm. Each well was monitored for 240 s. 20 µL of the test compound from a 6x stock solution in assay buffer were added after 120 s of starting the measurement. Ca2+ transient increase was quantified by calculating the difference between maximum and baseline values for each […]
Graphs shown are representative of two to three independent experiments.

LPA1 [5] = molecular target: T1, LPA1; parameters: expressed in transfected cells; conditions: cited from earlier work
LPA3 [6] = molecular target: T3, LPA3; parameters: expressed in transfected cells; conditions: cited from earlier work

T1 sequence (Q92633 whole entry, species assumed): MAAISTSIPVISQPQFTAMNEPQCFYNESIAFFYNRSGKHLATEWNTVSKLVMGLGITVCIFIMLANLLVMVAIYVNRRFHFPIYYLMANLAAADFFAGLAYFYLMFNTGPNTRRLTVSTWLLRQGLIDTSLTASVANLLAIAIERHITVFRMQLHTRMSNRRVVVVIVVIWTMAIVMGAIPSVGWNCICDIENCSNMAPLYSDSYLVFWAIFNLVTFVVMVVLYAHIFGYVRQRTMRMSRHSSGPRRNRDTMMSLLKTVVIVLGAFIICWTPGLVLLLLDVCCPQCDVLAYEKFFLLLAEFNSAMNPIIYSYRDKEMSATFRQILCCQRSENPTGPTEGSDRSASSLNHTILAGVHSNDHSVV
T2 sequence (Q9HBW0 whole entry, species assumed): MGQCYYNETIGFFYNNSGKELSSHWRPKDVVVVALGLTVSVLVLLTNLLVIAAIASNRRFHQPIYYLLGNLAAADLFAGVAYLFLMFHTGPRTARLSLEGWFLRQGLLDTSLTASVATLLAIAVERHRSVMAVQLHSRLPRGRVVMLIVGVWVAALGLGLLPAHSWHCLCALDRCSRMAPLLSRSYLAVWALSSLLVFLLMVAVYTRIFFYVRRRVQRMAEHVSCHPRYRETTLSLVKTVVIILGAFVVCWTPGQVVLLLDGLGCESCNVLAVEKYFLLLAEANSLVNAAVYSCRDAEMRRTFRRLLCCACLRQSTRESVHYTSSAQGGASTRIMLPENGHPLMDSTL

Row | Compound | Emax (%) LPA1 (LPA1 [1]) | Emax at 10 µM (LPA2 [2]) [%] | Emax (%) LPA3 (LPA3 [3]) | melting point | also measured
1 | Cc1[nH]nc(-c2ccc(OCC(=O)O)cc2O)c1Oc1ccccc1Cl [Compound 1] | N.E.^c | 48 ± 9 | N.E. |  | agonist activity at LPA2 receptor (LPA2 [4]): lack and absence of significant agonist activity
2 | O=C(O)COc1ccc(-c2cc[nH]n2)c(O)c1 [Compound 2, [3-Hydroxy-4-(1H-pyrazol-3-yl)phenoxy]acetic Acid] |  | 7 ± 3 |  | 92 to 94 °C | 
3 | Cc1[nH]nc(-c2ccc(OCC(=O)O)cc2O)c1Oc1ccccc1 [Compound 3, [3-Hydroxy-4-(5-methyl-4-phenoxy-1H-pyrazol-3-yl)phenoxy]acetic Acid] | N.E. | 20 ± 7 | N.E. | > 180 °C (dec.) | 
4 | Cc1[nH]nc(-c2ccc(OCC(=O)O)cc2O)c1Oc1cccc(Cl)c1 [Compound 10, {4-[4-(3-Chlorophenoxy)-5-methyl-1H-pyrazol-3-yl]-3-hydroxyphenoxy}acetic Acid] | N.E. | 45 ± 8 | N.E. | > 240 °C (dec.) | 
5 | Cc1[nH]nc(-c2ccc(OCC(=O)O)cc2O)c1Oc1ccc(Cl)cc1 [Compound 11, {4-[4-(4-Chlorophenoxy)-5-methyl-1H-pyrazol-3-yl]-3-hydroxyphenoxy}acetic Acid] | N.E. | 60 ± 9 | N.E. | 121 to 123 °C | 
6 | Cc1[nH]nc(-c2ccc(OCC(=O)O)cc2O)c1Oc1ccc(Cl)c(Cl)c1 [Compound 12, {4-[4-(3,4-Dichlorophenoxy)-5-methyl-1H-pyrazol-3-yl]-3-hydroxyphenoxy}acetic Acid] | N.E. | 58 ± 3 | N.E. | > 240 °C (dec.) | 
7 | Cc1[nH]nc(-c2ccc(OCC(=O)O)cc2)c1Oc1ccc(Cl)cc1Cl [Compound 30, 4-(2,4-Dichlorophenoxy)-3-(4-carboxymethoxyphenyl)-5-methyl-1H-pyrazole] |  | 11 |  | 158 to 160 °C | 
8 | Cc1[nH]nc(-c2ccc(OCCC(=O)O)cc2O)c1Oc1ccc(Cl)cc1Cl [Compound 36, 3-{4-[4-(2,4-Dichlorophenoxy)-5-methyl-1H-pyrazol-3-yl]-3-hydroxyphenoxy}propanoic Acid] | N.E. | 67 ± 7 | N.E. |  | 
9 | Cc1[nH]nc(-c2ccc(OCCCC(=O)O)cc2O)c1Oc1ccc(Cl)cc1Cl [Compound 37, 4-{4-[4-(2,4-Dichlorophenoxy)-5-methyl-1H-pyrazol-3-yl]-3-hydroxyphenoxy}butanoic Acid] | N.E. | 43 ± 12 | N.E. |  | 
10 | Cc1[nH]nc(-c2ccc(OCCCCC(=O)O)cc2O)c1Oc1ccc(Cl)cc1Cl [Compound 38, 5-{4-[4-(2,4-Dichlorophenoxy)-5-methyl-1H-pyrazol-3-yl]-3-hydroxyphenoxy}pentanoic Acid] | N.E. | 21 ± 8 | N.E. |  | 
11 | Cc1[nH]nc(-c2ccc(O)cc2O)c1Oc1ccc(Cl)cc1Cl [Compound 42, 4-[4-(2,4-Dichlorophenoxy)-5-methyl-1H-pyrazol-3-yl]benzene-1,3-diol] | N.E. | 16 ± 7 | N.E. | 206 to 208 °C | 
12 | COc1ccc(-c2n[nH]c(C)c2Oc2ccc(Cl)cc2Cl)c(O)c1 [Compound 43, 2-[4-(2,4-Dichlorophenoxy)-5-methyl-1H-pyrazol-3-yl]-5-methoxyphenol] | N.E. | 9 ± 5 | N.E. | 220 to 222 °C | 
13 | COC(=O)COc1ccc(-c2n[nH]c(C)c2Oc2ccc(Cl)cc2Cl)c(O)c1 [Compound 44, Methyl {4-[4-(2,4-dichlorophenoxy)-5-methyl-1H-pyrazol-3-yl]-3-hydroxyphenoxy} Acetate] | N.E. | 74 ± 7 | N.E. | > 210 °C (dec.) | IC50 (LPA2 [2]): 11.6 µM
14 | Cc1[nH]nc(-c2ccc(OCC(N)=O)cc2O)c1Oc1ccc(Cl)cc1Cl [Compound 45, 2-{4-[4-(2,4-Dichlorophenoxy)-5-methyl-1H-pyrazol-3-yl]-3-hydroxyphenoxy}acetamide] | N.E. | 44 ± 7 | N.E. |  | 
15 | Cc1c(Oc2ccc(Cl)cc2Cl)c(-c2ccc(OCC(=O)O)cc2O)nn1C [Compound 47, {4-[4-(2,4-Dichlorophenoxy)-1,5-dimethyl-1H-pyrazol-3-yl]-3-hydroxyphenoxy}acetic Acid] | N.E. | 73 ± 10 |  |  | Emax (LPA3 [3]; read-out: Emax (%) LPA3): 47 ± 7%
16 | O=C(O)COc1ccc(-c2n[nH]cc2Oc2ccc(Cl)cc2Cl)c(O)c1 [Compound 48, {4-[4-(2,4-Dichlorophenoxy)-1H-pyrazol-3-yl]-3-hydroxyphenoxy}acetic Acid] | N.E. | 35 ± 8 | N.E. |  | 
17 | Cc1[nH]nc(-c2ccc(OCC(=O)O)cc2O)c1Oc1ccc(F)cc1F [Compound 53, {4-[4-(2,4-Difluorophenoxy)-5-methyl-1H-pyrazol-3-yl]-3-hydroxyphenoxy}acetic Acid] | N.E. |  | N.E. | > 210 °C (dec.) | Emax (LPA2 [2]): 65 ± 11%; IC50 (LPA2 [2]): 5.1 µM
18 | Cc1[nH]nc(-c2ccc(OCc3nnn[nH]3)cc2O)c1Oc1ccc(F)cc1F [Compound 55] | N.E. |  | N.E. | > 210 °C (dec.) | Emax (LPA2 [2]): 77 ± 5%
19 | Cc1csc2c(N[C@@H](C)CN3CCN(S(=O)(=O)c4ccc(Cl)c(Cl)c4)CC3)ncnc12 [Compound C35] |  |  |  |  | IC50 (LPA1 [5]): > 50 µM; IC50 (LPA3 [6]): > 50 µM
20 | O=C(O)/C=C/C(=O)Nc1ccc(Oc2cccc(Oc3ccc(NC(=O)/C=C/C(=O)O)cc3)c2)cc1 [Compound H2L5186303] |  |  |  |  | IC50 (LPA1 [5]): 1.23 µM; IC50 (LPA3 [6]): 27.3 µM
21 | {4-[4-(2,4-Dichlorophenoxy)-3-methyl-1,2-oxazol-3-yl]-3-hydroxyphenoxy}acetic Acid [Compound 49] | N.E. |  | 71 ± 4% |  | Emax (%) LPA2 (LPA2 [2]; maximum blockade of activation induced by 10 μM LPA (18:1) at 10 μM compound): 58 ± 3%
